Data published in patent US5817669A, “Compounds, processes for the preparation thereof and anti-tumor agents” (Dainippon Pharmaceutical Co., Ltd., priority 1994, dated 1998).
Converted amounts (≈) assume the structure as drawn. Like-named read-outs stand apart in the source and are kept apart here.

Tests used:
[1] = test system: AZ521 human stomach cancer; experiment: In vitro anti-tumor activity against AZ-521 human stomach cancer (MTT); format: cell-based; conditions: AZ-521, 72 h, MTT, read-out: IC50
Experimental: (§1) A culture medium containing 500 to 2,000 human cancer cells was put in an amount of 0.1 ml in each well of 96-well plate, and the cells were cultured for 20 hours under a condition of 37° C. and 5% carbon dioxide gas in air. After the culturing, a solution of test compounds of predetermined concentration was added, and then, the cells were cultured for further 72 hours. After the culturing, an MTT (5 mg/ml) solution was added in an amount of 0.01 ml in the respective wells, and the cells were cultured for further 4 hours. The supernatants of the culture medium were removed by suction, and then, 0.1 ml of dimethyl sulfoxide was put in respective well to dissolve the formed formazan, and, moreover, 0.1 ml of dimethyl sulfoxide was added.

[2] = test system: KB human nasopharynx cancer; experiment: In vitro anti-tumor activity against KB human nasopharynx cancer (MTT); format: cell-based; conditions: KB, 72 h, MTT, read-out: IC50
Experimental: as §1

[3] = test system: MKN45 human stomach cancer; experiment: In vitro anti-tumor activity against MKN45 human stomach cancer (MTT); format: cell-based; conditions: MKN-45, MKN45, 72 h, MTT, read-out: IC50
Experimental: as §1

[4] = test system: A427 human lung cancer; experiment: In vitro anti-tumor activity against A-427 human lung cancer (MTT); format: cell-based; conditions: A-427, 72 h, MTT, read-out: IC50
Experimental: as §1

[5] = test system: murine P388 lymphocytic leukemia cells; experiment: In vitro anti-tumor activity against murine P388 lymphocytic leukemia cells (MTT, 72 h); format: cell-based; conditions: Mus musculus; murine P388 cells, 72 h, MTT; read-out: IC50 (50% proliferation inhibitory concentration)
Experimental: Test compounds were tested for anti-tumor activity according to MTT [3-(4,5-dimethylthiazol-2-yl)-2,5-diphenyltetrazolium bromide] method, using murine P388 lymphocytic leukemia cells. […] The culture medium was centrifuged (4° C., 2,000 rpm for 20 minutes), and thus, the supernatants were removed by suction. Then, 0.1 ml of dimethyl sulfoxide was put in each well to dissolve the formed formazan, and, subsequently, another 0.1 ml of dimethyl sulfoxide was added. The absorbance (OD) of each of the obtained solutions was measured by use of Multiskan Bichromatic (main wavelength 570 nm, sub-wavelength 690 nm). […] IC50 :μg/ml) were calculated by the least squares method.

[6] = test system: C33A human cervix cancer; experiment: In vitro anti-tumor activity against C-33A human cervix cancer (MTT); format: cell-based; conditions: C-33A, 72 h, MTT, read-out: IC50
Experimental: as §1

[7] = test system: WiDr human colorectal cancer; experiment: In vitro anti-tumor activity against WiDr human colorectal cancer (MTT); format: cell-based; conditions: 72 h, MTT, read-out: IC50
Experimental: as §1

[8] = test system: colon 26 murine tumor cells; experiment: Tumor growth inhibition effect on colon 26 murine tumor cells implanted mice; format: in vivo, SLC: CDF1 mice; conditions: Mus musculus, Colon 26, 504 h, ip, days 1-9, day 21 or 22, read-out: Tumor growth inhibition rate IR (%); for inhibition in vivo at 3.13 mg/kg: 3.13 mg/kg once a day; for inhibition in vivo at 1.56 mg/kg: 1.56 mg/kg once a day; for inhibition in vivo at 6.25 mg/kg: 6.25 mg/kg once a day
Experimental: A 2% brei of colon 26 murine tumor cells was intracutaneously implanted each 0.1 ml in the abdominal part of SLC: CDF1 female mice (7 to 9 weeks old, 7 animals per one group). […] The obtained solutions were intraperitoneally (ip) administered each 0.2 ml once a day, from the day (1st day) following the implantation to the 9th day. On the 21st or 22nd day after the implantation, tumor weight was estimated from tumor diameters, and thus, the tumor growth inhibition rate (IR %) of the drug administered group in comparison with the control group was calculated according to the following equation. IR (%)=[1-{(MTW in the treated group)/(MTW in the control group)}]×10 0 MTW: mean tumor weight

[9] = test system: HMV2 human melanoma; experiment: In vitro anti-tumor activity against HMV-2 human melanoma (MTT); format: cell-based; conditions: HMV-2, 72 h, MTT, read-out: IC50
Experimental: as §1

[10] = test system: murine P388 lymphocytic leukemia cells; experiment: Increases in life span of mice implanted with murine P388 lymphocytic leukemia cells; format: in vivo, SLC: BDF1 mice; conditions: Mus musculus, P388, ip, 720 h, ip
Experimental: 1×10^6 murine P388 lymphocytic leukemia cells were intraperitoneally implanted in each of SLC: BDF1 mice (8 to 10 weeks old, female, 7 animals per one group). A test compound (drug) was either dissolved in 0.1 N--NaOH or suspended in 0.4% carboxymethylcellulose solution, and the resultant solution or suspension was diluted with distilled water or 0.4% carboxymethylcellulose solution so as to give predetermined concentrations for administration. The obtained solution was intraperitoneally (ip) administered twice, namely on the day following the implantation (1st day) and the 5th day, each 0.2 ml. The life and death of the mice were observed over a period of 30 days, and the median survival time (hereinafter referred to as MST) was determined for each group, and, thus, the increase in life span (ILS; %) was calculated according to the following equation:
ILS (%)=[{(MST of the test group)/(MST of the control group)}-1]×100
Drug effect was judged in the following manner, according to the criterion of U.S. National Cancer Institute (NCI):
ILS=75% or higher: ++ (remarkably effective);
20 to 74%: + (effective);
19% or lower: - (ineffective)

[11] = NCI criterion, read-out: Evaluation
[12] = days 1 and 5, in suspension, read-out: ILS (%) (in suspension)

SMILES	IC50 [1] [µg/mL]	IC50 [2] [µg/mL]	IC50 [3] [µg/mL]	IC50 [4] [µg/mL]	IC50 [5] [µg/mL]	IC50 [6] [µg/mL]	IC50 [7] [µg/mL]	inhibition in vivo at 3.13 mg/kg [8] [%]	IC50 [9] [µg/mL]	ILS at 3.13 mg/kg [10, 11] [%]	ILS at 12.5 mg/kg [10, 11] [%]	ILS at 3.13 mg/kg [10, 12] [%]	ILS at 12.5 mg/kg [10, 12] [%]	inhibition in vivo at 1.56 mg/kg [8] [%]	ILS at 50 mg/kg [10, 11] [%]	ILS at 50 mg/kg [10, 12] [%]	inhibition in vivo at 0.78 mg/kg ([8]; 0.78 mg/kg once a day) [%]	inhibition in vivo at 6.25 mg/kg [8] [%]	inhibition in vivo at 1.1 mg/kg ([8]; 1.10 mg/kg once a day) [%]
CN[C@@H]1CN(c2ccc3c(=O)c(C(=O)O)cn(-c4nccs4)c3n2)C[C@@H]1OC (relative stereo) [Compound 1-4]	0.0985 (≈ 0.245 µM)	0.147 (≈ 0.366 µM)	0.131 (≈ 0.326 µM)	0.158 (≈ 0.394 µM)	0.02 (≈ 0.0498 µM)	0.143 (≈ 0.356 µM)	0.273 (≈ 0.68 µM)	61	0.197 (≈ 0.491 µM)	20 to 74	> 75	25	100	–	–	–	–	–	–
C[C@@H]1CN(c2ccc3c(=O)c(C(=O)O)cn(-c4nccs4)c3n2)C[C@H]1N (relative stereo) [Compound 7]	0.0719 (≈ 0.194 µM)	0.111 (≈ 0.299 µM)	0.112 (≈ 0.302 µM)	0.0933 (≈ 0.251 µM)	0.00955 (≈ 0.0257 µM)	0.105 (≈ 0.283 µM)	0.314 (≈ 0.845 µM)	95	0.139 (≈ 0.374 µM)	> 75	> 75	75	100	61	> 75	188	–	–	–
CN[C@@H]1CN(c2ccc3c(=O)c(C=O)cn(-c4nccs4)c3n2)C[C@H]1OC.Cl (relative stereo) [Compound 11, 3-Formyl-1,4-dihydro-7-(trans-3-methoxy-4-methylamino-1-pyrrolidinyl)-4-oxo-1-(2-thiazolyl)-1,8-naphthyridine hydrochloride]	0.0307	0.179	0.144	0.0749	0.0309	0.161	0.264	–	0.214	> 75	> 75	88	150	58	> 75	225	50	–	–
C[C@@H]1CN(c2ccc3c(=O)c(C(=O)O)cn(-c4nccs4)c3n2)C[C@@]1(C)N (relative stereo) [Compound 12]	0.101 (≈ 0.262 µM)	0.125 (≈ 0.324 µM)	0.164 (≈ 0.425 µM)	0.146 (≈ 0.379 µM)	0.0195 (≈ 0.0506 µM)	0.131 (≈ 0.34 µM)	0.295 (≈ 0.765 µM)	48	0.265 (≈ 0.688 µM)	–	> 75	–	75	–	–	–	–	84	–
CCN[C@@H]1CN(c2ccc3c(=O)c(C(=O)O)cn(-c4nccs4)c3n2)C[C@H]1OC (relative stereo) [Compound 13]	0.0717 (≈ 0.173 µM)	0.15 (≈ 0.361 µM)	0.139 (≈ 0.335 µM)	0.15 (≈ 0.361 µM)	0.0252 (≈ 0.0607 µM)	0.138 (≈ 0.332 µM)	0.268 (≈ 0.645 µM)	–	0.171 (≈ 0.412 µM)	20 to 74	> 75	25	100	41	> 75	213	–	–	–
CN[C@@H]1CN(c2cc(N)c3c(=O)c(C(=O)O)cn(-c4nccs4)c3n2)C[C@H]1OC (relative stereo) [Compound 15]	0.0288 (≈ 0.0692 µM)	0.0604 (≈ 0.145 µM)	0.0964 (≈ 0.231 µM)	0.0696 (≈ 0.167 µM)	0.0157 (≈ 0.0377 µM)	0.0854 (≈ 0.205 µM)	0.259 (≈ 0.622 µM)	68	0.119 (≈ 0.286 µM)	> 75	> 75	88	200	–	> 75	238	–	–	–
CN[C@@H]1CN(c2ccc3c(=O)c(C(=O)O)cn(-c4nc(F)cs4)c3n2)C[C@H]1OC (relative stereo) [Compound 16]	0.0798 (≈ 0.19 µM)	0.126 (≈ 0.3 µM)	0.148 (≈ 0.353 µM)	0.145 (≈ 0.346 µM)	0.0344 (≈ 0.082 µM)	0.132 (≈ 0.315 µM)	0.322 (≈ 0.768 µM)	77	0.181 (≈ 0.432 µM)	20 to 74	> 75	38	138	–	> 75	238	–	–	–
C[C@@H]1[C@@H](N)CCN1c1ccc2c(=O)c(C(=O)O)cn(-c3nccs3)c2n1 (relative stereo) [Compound 17]	–	–	–	–	–	–	–	–	–	–	–	–	–	–	> 75	150	–	–	–
CN[C@@H]1CN(c2ccc3c(=O)c(C(=O)O)cn(-c4nccs4)c3n2)C[C@H]1OC (single isomer, unassigned) [Compound 1-2, (+)-1,4-Dihydro-7-(trans-3-methoxy-4-methylamino-1-pyrrolidinyl)-4-oxo-1-(2-thiazolyl)-1,8-naphthyridine-3-carboxylic acid]	0.0396 (≈ 0.0986 µM)	0.0873 (≈ 0.217 µM)	0.155 (≈ 0.386 µM)	0.0925 (≈ 0.23 µM)	0.00641 (≈ 0.016 µM)	0.0828 (≈ 0.206 µM)	0.357 (≈ 0.889 µM)	–	0.114 (≈ 0.284 µM)	–	–	–	–	–	–	–	–	–	69
NC1CCN(c2ncc3c(=O)c(C(=O)O)cn(-c4nccs4)c3n2)C1 (centres unmarked) [Compound 14]	0.31 (≈ 0.865 µM)	0.636 (≈ 1.77 µM)	–	–	0.0466 (≈ 0.13 µM)	–	–	55	0.872 (≈ 2.43 µM)	20 to 74	> 75	63	113	–	> 75	> 275	–	68	–
